What was measured:
Format in all cases: cell-based
Human melanocytes = test: Melanin synthesis in human melanocytes; details: positive control, concentration not given; 5 days of culture; n=5; p<0.01
Method: Human melanocytes were seeded in 24-well plates. After 24 h of attachment, the cells are in contact with the test products. After 5 days of culture, the layers are rinsed, the total melanins are extracted in sodium hydroxide and assayed spectrophotometrically at 490 nm. For tyrosinase, an identical culture protocol is followed and then the enzyme is extracted from the cells and DOPA oxidase activity is measured spectrophotometrically at 37°C with a solution of L-DOPA to 0.2%. The data are normalized using a viability assay. Table 9: inhibition of melanogenese in the presence of the extract of Oxydendrum arboreum cell culture compared with control. (n=5)

tyrosinase = target: T1, tyrosinase (Homo sapiens, UniProt P14679); test: Tyrosinase (DOPA oxidase) activity extracted from human melanocytes; details: positive control, concentration not given; 5 days of culture; n=5; p<0.01
T1 sequence (P14679 19-529): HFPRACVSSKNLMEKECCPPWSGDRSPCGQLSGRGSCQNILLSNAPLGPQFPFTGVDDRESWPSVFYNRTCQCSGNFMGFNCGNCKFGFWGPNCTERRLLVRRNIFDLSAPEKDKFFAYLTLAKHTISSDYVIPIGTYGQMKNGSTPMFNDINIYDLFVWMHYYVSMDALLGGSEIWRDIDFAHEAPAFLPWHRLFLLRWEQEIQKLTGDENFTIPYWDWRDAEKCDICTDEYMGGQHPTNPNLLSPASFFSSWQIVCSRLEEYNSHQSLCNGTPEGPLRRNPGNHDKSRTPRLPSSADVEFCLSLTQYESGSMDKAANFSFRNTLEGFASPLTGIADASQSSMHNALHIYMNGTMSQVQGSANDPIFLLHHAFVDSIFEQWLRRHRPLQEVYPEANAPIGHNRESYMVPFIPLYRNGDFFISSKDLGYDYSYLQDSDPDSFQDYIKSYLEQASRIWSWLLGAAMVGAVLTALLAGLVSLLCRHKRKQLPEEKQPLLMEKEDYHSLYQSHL

collagen I = test: Collagen I synthesis by normal human fibroblasts (immuno-labeling); details: positive control, concentration not given; NHF, 7 days; p<0.01
Method: Normal human fibroblasts (NHF) are cultivated in plate MW24 for 24 hours. The cells are in contact or not of test products at various concentrations for 7 days. The synthesis of collagen I is then quantified by immuno-labeling fixed on the layer. Table 7: increase of collagen I on NHF in the presence of the extract of Oxydendrum arboretum cell culture compared with control. (n=4 wells/ 20 photos)

| Tyrosinase (% Change / Control) (tyrosinase) | SMILES | Melanin (% Change / Control) (Human melanocytes) | Collagen I Synthesis % change / control (collagen I) |
| --- | --- | --- | --- |
| -48% | OC[C@H]1O[C@@H](Oc2ccc(O)cc2)[C@H](O)[C@@H](O)[C@@H]1O [Arbutin] | -56% |  |
|  | O=C1O[C@H]([C@@H](O)CO)C(O)=C1O [Vitamin C] |  | +236% ; p<0.01 |

Source: EP2739296B1, “PLANT MATERIAL FROM OXYDENDRUM ARBOREUM FOR COSMETIC USE” (Sederma, priority 2011, dated 2013)
